Laboratory results from PMC11200585, “Prospects for Prostate Cancer Chemotherapy: Cytotoxic Evaluation and Mechanistic Insights of Quinolinequinones with ADME/PK Profile” (Biomedicines, 2024).

Key:
Assay type in all cases: cell-based, human
[1] = system: CCRF-CEM; experiment: NCI-60 one-dose screen (leukemia); conditions: 10 µM single dose; for GP (growth percentage): 48 h
Description: (§1) The obtained quinolinequinones were submitted to NCI, Bethesda, USA, and, as per standard protocol of NCI, all compounds were evaluated for their antiproliferative activity at single-dose assay (10 µM concentration in DMSO) on a panel of 60 cancer cell lines derived from leukemia, non-small-cell lung, colon, CNS, melanoma, ovarian, renal, prostate, and breast, as per protocol. Tested compounds were added to the microtiter culture plates followed by incubation for 48 h at 37 °C. Sulforhodamine B (SRB), a protein-binding dye, is used for endpoint determination. The percent of the growth of the treated cells was determined in comparison to the untreated control cells and the results of each tested compound were reported. Data from one-dose experiments pertain to the percentage growth at 10 μM [16, 17, 18].

[2] = system: HL-60(TB); experiment: NCI-60 one-dose screen (leukemia); conditions: 10 µM single dose, 48 h
Description: as §1

[3] = system: K-562; experiment: NCI-60 one-dose screen (leukemia); conditions: for GP (growth percentage): 10 µM single dose, 48 h
Description: as §1

[4] = system: MOLT-4; experiment: NCI-60 one-dose screen (leukemia); conditions: 10 µM single dose; for GP (growth percentage): 48 h
Description: as §1

[5] = system: RPMI-8226; experiment: NCI-60 one-dose screen (leukemia); conditions: 10 µM single dose, 48 h
Description: as §1

[6] = system: SR; experiment: NCI-60 one-dose screen (leukemia); conditions: 10 µM single dose, 48 h
Description: as §1

[7] = system: COLO 205; experiment: NCI-60 one-dose screen (colon cancer); conditions: 10 µM single dose, 48 h
Description: as §1

[8] = system: HCC-2998; experiment: NCI-60 one-dose screen (colon cancer); conditions: 10 µM single dose; for GP (growth percentage): 48 h
Description: as §1

[9] = system: HCT-116; experiment: NCI-60 one-dose screen (colon cancer); conditions: 10 µM single dose, 48 h
Description: as §1

[10] = system: HCT-15; experiment: NCI-60 one-dose screen (colon cancer); conditions: 10 µM single dose, 48 h
Description: as §1

[11] = system: HT29; experiment: NCI-60 one-dose screen (colon cancer); conditions: for GP (growth percentage): 10 µM single dose, 48 h
Description: as §1

[12] = system: KM12; experiment: NCI-60 one-dose screen (colon cancer); conditions: 10 µM single dose, 48 h
Description: as §1

[13] = system: SW-620; experiment: NCI-60 one-dose screen (colon cancer); conditions: 10 µM single dose, 48 h
Description: as §1

[14] = system: LOX IMVI; experiment: NCI-60 one-dose screen (melanoma); conditions: 10 µM single dose, 48 h
Description: as §1

[15] = system: MALME-3M; experiment: NCI-60 one-dose screen (melanoma); conditions: 10 µM single dose, 48 h
Description: as §1

[16] = system: MDA-MB-435; experiment: NCI-60 one-dose screen (melanoma); conditions: 10 µM single dose, 48 h
Description: as §1

[17] = system: SK-MEL-28; experiment: NCI-60 one-dose screen (melanoma); conditions: 10 µM single dose; for GP (growth percentage): 48 h
Description: as §1

[18] = system: SK-MEL-2; experiment: NCI-60 one-dose screen (melanoma); conditions: 10 µM single dose; for GP (growth percentage): 48 h
Description: as §1

[19] = system: SK-MEL-5; experiment: NCI-60 one-dose screen (melanoma); conditions: 10 µM single dose, 48 h
Description: as §1

[20] = system: UACC-257; experiment: NCI-60 one-dose screen (melanoma); conditions: 10 µM single dose, 48 h
Description: as §1

[21] = system: UACC-62; experiment: NCI-60 one-dose screen (melanoma); conditions: 10 µM single dose, 48 h
Description: as §1

[22] = system: CCRF-CEM; experiment: NCI-60 five-dose assay (leukemia); conditions: 48 h, SRB; for GI50 / LC50 (concentration killing 50% of cells): Homo sapiens
[23] = system: HL-60(TB); experiment: NCI-60 five-dose assay (leukemia); conditions: 48 h, SRB; for GI50 / CC50: Homo sapiens; for CC50: read-out: LC50 (the source's name)
[24] = system: RPMI-8226; experiment: NCI-60 five-dose assay (leukemia); conditions: 48 h, SRB; for GI50 / CC50: Homo sapiens; for CC50: read-out: LC50 (the source's name)
[25] = system: NCI-H226; experiment: NCI-60 five-dose assay (non-small cell lung cancer); conditions: 48 h, SRB; for GI50 / LC50: Homo sapiens
[26] = system: NCI-H322M; experiment: as above; conditions: 48 h, SRB; for GI50 / CC50: Homo sapiens; for CC50: read-out: LC50 (the source's name)
[27] = system: COLO 205; experiment: NCI-60 five-dose assay (colon cancer); conditions: 48 h, SRB
[28] = system: SF-295; experiment: NCI-60 five-dose assay (CNS cancer); conditions: 48 h, SRB; for GI50 / LC50 (50% lethal concentration): Homo sapiens
[29] = system: LOX IMVI; experiment: NCI-60 five-dose assay (melanoma); conditions: 48 h, SRB; for GI50 / LC50 (concentration killing 50% of cells): Homo sapiens
[30] = system: MDA-MB-435; experiment: NCI-60 five-dose assay (melanoma); conditions: 48 h, SRB; for GI50 / CC50: Homo sapiens; for CC50: read-out: LC50 (the source's name)
[31] = system: OVCAR-3; experiment: NCI-60 five-dose assay (ovarian cancer); conditions: 48 h, SRB
[32] = system: A498; experiment: NCI-60 five-dose assay (renal cancer); conditions: 48 h, SRB; for GI50 / LC50: Homo sapiens
[33] = system: CAKI-1; experiment: NCI-60 five-dose assay (renal cancer); conditions: 48 h, SRB; for GI50 / LC50 (lethal concentration, 50% net cell kill): Homo sapiens
[34] = system: RXF 393; experiment: NCI-60 five-dose assay (renal cancer); conditions: 48 h, SRB; for GI50 / LC50: Homo sapiens
[35] = system: PC-3; experiment: NCI-60 five-dose assay (prostate cancer); conditions: 48 h, SRB; for GI50 / CC50: Homo sapiens; for CC50: read-out: LC50 (the source's name)
[36] = system: DU-145; experiment: NCI-60 five-dose assay (prostate cancer); conditions: 48 h, SRB; for GI50 / CC50: Homo sapiens; for CC50: read-out: LC50 (the source's name)
[37] = system: BT-549; experiment: NCI-60 five-dose assay (breast cancer); conditions: 48 h, SRB; for GI50 / LC50 (concentration giving 50% net cell kill): Homo sapiens
[38] = system: MDA-MB-468; experiment: NCI-60 five-dose assay (breast cancer); conditions: 48 h, SRB; for GI50 / LC50: Homo sapiens
[39] = Homo sapiens, read-out: LC50 (the source's name)

COc1ccccc1NC1=C(Cl)C(=O)c2nc(C)ccc2C1=O [AQQ1]
GP (growth percentage) [1]: −4.94% | GP (growth percentage) [2]: −48.05% | GP (growth percentage) [3]: −21.12% | GP (growth percentage) [4]: −39.00% | GP (growth percentage) [5]: −30.44% | GP (growth percentage) [6]: −27.92% | GP (growth percentage) [7]: 111.34% | GP (growth percentage) [8]: 58.90% | GP (growth percentage) [9]: −80.64% | GP (growth percentage) [10]: −47.03% | GP (growth percentage) [11]: 75.04% | GP (growth percentage) [12]: 69.40% | GP (growth percentage) [13]: −63.13% | GP (growth percentage) [14]: −72.99% | GP (growth percentage) [15]: −55.92% | GP (growth percentage) [16]: −85.96% | GP (growth percentage) [17]: 14.13% | inhibition at 10 µM ([17]; Homo sapiens): 85.9% | GP (growth percentage) [18]: 78.82% | GP (growth percentage) [19]: −93.34% | GP (growth percentage) [20]: −82.67% | GP (growth percentage) [21]: −45.84% | TGI [22]: 8.21 µM | GI50 [22]: 1.94 µM | LC50 (concentration killing 50% of cells) [22]: > 100 µM | TGI [23]: 3.52 µM | GI50 [23]: 1.37 µM | CC50 [23]: 9.03 µM | TGI [24]: 4.61 µM | GI50 [24]: 1.57 µM | CC50 [24]: > 100 µM | TGI [25]: 4.52 µM | GI50 [25]: 1.93 µM | LC50 [25]: 14.1 µM | TGI [26]: 7.69 µM | GI50 [26]: 2.5 µM | CC50 [26]: 27.6 µM | TGI [27]: 3.87 µM | GI50 ([27]; Homo sapiens): 1.78 µM | TGI [28]: 3.42 µM | GI50 [28]: 1.85 µM | LC50 (50% lethal concentration) [28]: 6.32 µM | TGI [29]: 2.36 µM | GI50 [29]: 0.952 µM | LC50 (concentration killing 50% of cells) [29]: 5.7 µM | TGI [30]: 3.11 µM | GI50 [30]: 1.7 µM | CC50 [30]: 5.67 µM | TGI [31]: 2.40 µM | GI50 ([31]; Homo sapiens): 1.12 µM | CC50 [31, 39]: 5.15 µM | TGI [32]: 4.60 µM | GI50 [32]: 1.9 µM | LC50 [32]: 13.1 µM | TGI [33]: 2.87 µM | GI50 [33]: 1.5 µM | LC50 (lethal concentration, 50% net cell kill) [33]: 5.47 µM | TGI [34]: 2.76 µM | GI50 [34]: 1.42 µM | LC50 [34]: 5.36 µM | TGI [35]: 2.58 µM | GI50 [35]: 1.21 µM | CC50 [35]: 5.49 µM | TGI [36]: 3.11 µM | GI50 [36]: 1.72 µM | CC50 [36]: 5.62 µM | TGI [37]: 3.27 µM | GI50 [37]: 1.72 µM | LC50 (concentration giving 50% net cell kill) [37]: 6.19 µM | TGI [38]: 3.06 µM | GI50 [38]: 1.52 µM | LC50 [38]: 6.16 µM

COc1cc(NC2=C(Cl)C(=O)c3nc(C)ccc3C2=O)cc(OC)c1 [AQQ5]
GP (growth percentage) [1]: 2.72% | inhibition at 10 µM ([1]; Homo sapiens): 97.3% | GP (growth percentage) [2]: −13.44% | GP (growth percentage) [3]: 4.73% | inhibition at 10 µM ([3]; Homo sapiens, K562, 10 µM single dose): 95.3% | GP (growth percentage) [4]: 8.29% | inhibition at 10 µM ([4]; Homo sapiens): 91.7% | GP (growth percentage) [5]: −39.66% | GP (growth percentage) [6]: −3.19% | GP (growth percentage) [7]: −80.52% | GP (growth percentage) [8]: 14.44% | inhibition at 10 µM ([8]; Homo sapiens): 85.6% | GP (growth percentage) [9]: −97.84% | GP (growth percentage) [10]: −66.21% | GP (growth percentage) [11]: 24.91% | inhibition at 10 µM ([11]; Homo sapiens, HT-29, 10 µM single dose): 75.1% | GP (growth percentage) [12]: 39.30% | GP (growth percentage) [13]: −90.16% | GP (growth percentage) [14]: −82.62% | GP (growth percentage) [15]: −89.37% | GP (growth percentage) [16]: −87.43% | GP (growth percentage) [17]: −73.06% | GP (growth percentage) [18]: 5.03% | inhibition at 10 µM ([18]; Homo sapiens): 95% | GP (growth percentage) [19]: −74.93% | GP (growth percentage) [20]: −92.05% | GP (growth percentage) [21]: −43.56% | GI50 [22]: 2.23 µM | LC50 (concentration killing 50% of cells) [22]: > 100 µM | TGI [23]: 4.65 µM | GI50 [23]: 1.38 µM | CC50 [23]: > 100 µM | TGI [24]: 5.19 µM | GI50 [24]: 1.79 µM | CC50 [24]: > 100 µM | TGI [25]: 8.35 µM | GI50 [25]: 2.82 µM | LC50 [25]: 46.1 µM | TGI [26]: 12.8 µM | GI50 [26]: 3.42 µM | CC50 [26]: 35.8 µM | TGI [27]: 3.08 µM | GI50 ([27]; Homo sapiens): 1.68 µM | CC50 [27, 39]: 5.63 µM | TGI [28]: 5.41 µM | GI50 [28]: 1.99 µM | LC50 (50% lethal concentration) [28]: 20.8 µM | TGI [29]: 2.32 µM | GI50 [29]: 1.1 µM | LC50 (concentration killing 50% of cells) [29]: 4.88 µM | TGI [30]: 3.57 µM | GI50 [30]: 1.72 µM | CC50 [30]: 7.39 µM | TGI [32]: 11.4 µM | GI50 [32]: 2.35 µM | LC50 [32]: 33.8 µM | TGI [33]: 3.15 µM | GI50 [33]: 1.76 µM | LC50 (lethal concentration, 50% net cell kill) [33]: 5.65 µM | TGI [34]: 2.99 µM | GI50 [34]: 1.63 µM | LC50 [34]: 5.48 µM | TGI [35]: 10.4 µM | GI50 [35]: 2.56 µM | CC50 [35]: 43.6 µM | TGI [36]: 3.55 µM | GI50 [36]: 1.84 µM | CC50 [36]: 6.83 µM | TGI [37]: 3.40 µM | GI50 [37]: 1.97 µM | LC50 (concentration giving 50% net cell kill) [37]: 5.87 µM | TGI [38]: 2.57 µM | GI50 [38]: 1.23 µM | LC50 [38]: 5.37 µM
